# Results reported in patent publication US11364275B2, “Linear lipopeptide paenipeptins and methods of using the same” (priority 2017, dated 2022).
# Read-outs that look alike come from different tables or passages of the source. Where a SMILES comes first, the peptide text is derived from it. [ ]: non-standard residue; d: D form. The star is where a group is joined. Dab = NCC[C@H](N)C(=O)O; Cbz = O=C(OCc1ccccc1)*
# Assays:
# [1] = test system: K. pneumoniae FDA-CDC AR 0068; details: K. pneumoniae AR 0068
# [2] = test system: methicillin-resistant S. aureus ATCC 43300; assay type: cell-based, Staphylococcus aureus; details: S. aureus ATCC 43300; TSB
# [3] = test system: Acinetobacter baumannii ATCC 19606; assay type: cell-based; details: A. baumannii ATCC 19606; TSB
# [4] = test system: K. pneumoniae FDA-CDC AR 0097; details: K. pneumoniae AR 0097
# [5] = test system: A. baumannii FDA-CDC AR 0037; details: A. baumannii AR 0037
# [6] = test system: K. pneumoniae FDA-CDC AR 0034; details: K. pneumoniae AR 0034
compound,measurement,setting,value
CC[C@H](C)[C@H](NC(=O)[C@H](CCN)NC(=O)OCc1ccccc1)C(=O)N[C@@H](CCN)C(=O)N[C@H](Cc1ccccc1)C(=O)N[C@@H](CC(C)C)C(=O)N[C@@H](CCN)C(=O)N[C@@H](C(=O)N[C@@H](CC(C)C)C(=O)N[C@@H](CO)C(N)=O)C(C)C [Analogue 15] (Cbz-[Dab]I[Dab][dF]L[Dab][dV]LS-NH2),MIC of clarithromycin at the presence of PMBN or paenipeptin analogue at 4 μg/ml,[1],>32 μg/ml
same,MIC of rifampicin at the presence of PMBN or paenipeptin analogue at 4 μg/ml,[1],0.0039-0.0078 μg/ml
same,MIC alone,[1]; 10% FBS,>32 µg/mL
same,MIC alone,[1]; No FBS,>32 µg/mL
same,MIC,[2],>32 µg/mL
same,MIC,[3],16 µg/mL
same,MIC of clarithromycin at the presence of PMBN or paenipeptin analogue at 4 μg/ml,[4],0.0078-0.0156 μg/ml
same,MIC of rifampicin at the presence of PMBN or paenipeptin analogue at 4 μg/ml,[4],0.0019-0.0039 μg/ml
same,MIC alone,[4]; 10% FBS,16 to 32 µg/mL
same,MIC alone,[4]; No FBS,>32 µg/mL
same,MIC of rifampicin at the presence of PMBN or paenipeptin analogue at 4 μg/ml,[5],≤0.0019 μg/ml
same,MIC alone,[5]; 10% FBS,4 µg/mL
same,MIC alone,[5]; No FBS,8 µg/mL
same,increase in antibiotic activity of clarithromycin,[5]; analogue at 4 μg/mL,8192 fold
same,MIC of clarithromycin at the presence of PMBN or paenipeptin analogue at 4 μg/ml,[6],0.125-0.5 μg/ml
same,MIC of rifampicin at the presence of PMBN or paenipeptin analogue at 4 μg/ml,[6],≤0.0019 μg/ml
same,MIC alone,[6]; 10% FBS,>32 µg/mL
same,MIC alone,[6]; No FBS,≥32 µg/mL
